Test results taken from article PMC7076710, “Synthesis, Identification, and Structure–Activity Relationship Analysis of GATA4 and NKX2-5 Protein–Protein Interaction Modulators” (Journal of Medicinal Chemistry, 2019).

Target: T1, GATA4–NKX2-5 transcriptional synergy (Mus musculus, UniProt P42582+Q08369)
T1 construct: expressed in transfected cells; host or cells: COS-1
Experiment: GATA4–NKX2-5 transcriptional synergy luciferase reporter assay (3xNKE reporter, COS-1 cells)
Assay type: cell-based
Method: To screen compounds for the GATA4–NKX2-5 interaction, we have developed a luciferase reporter assay based on their property to activate gene transcription synergistically through the NKX2-5 binding site on DNA.[28] In this assay, we transfected mammalian COS-1 cells with protein expression vectors for GATA4 and NKX2-5 proteins together with artificial luciferase reporter vector containing three high affinity binding sites for NKX2-5 (NKE). […] All 257 compounds were tested in two concentrations, 3 and 10 μM. Compounds either inhibited, enhanced, or had no effect on the GATA4–NKX2-5 transcriptional synergy. To investigate the selectivity of the active compounds, we tested their effects on NKX2-5 transcriptional activity by using the same luciferase reporter vector as in transcriptional synergy assay with three NKE sites (Figure 3B). Furthermore, we used GATA luciferase reporter assay to examine if compounds have an effect on GATA4 transcriptional activity. In this assay, we cotransfected the cells with a GATA4 protein expression vector and a reporter vector with tandem GATA4 binding sites (Figure 3C). Previously we have reported that compound 1 inhibited the GATA4–NKX2-5 transcriptional synergy at micromolar concentrations (IC50 = 3 μM).[29]
The plasmids expressing mouse GATA4 protein, pMT2-GATA4, and empty pMT2 were gifts from D. B. Wilson (Department of Pediatrics, St. Louis Children’s Hospital, St. Louis, MO).[44] The plasmids expressing mouse NKX2-5 protein, pMT2-NKX2-5, have been described earlier.[28] The luciferase reporter plasmid used in GATA4–NKX2-5 transcriptional synergy assay and NKX transcriptional assay, pGL3-3xHA, contains three high affinity binding sites for NKX2-5.[28] The luciferase reporter plasmid used in GATA transcriptional assay, NP-112, contains tandem GATA-sites and minimal promoter of rat brain natriuretic peptide (BNP) gene.[45] The pGL3-BNP luciferase reporter containing −534/+4 bp rat BNP proximal promoter described previously was used in hypertrophy assay.[46]
The primary screening assay of compounds’ effect on GATA4–NKX2-5 transcriptional synergy and COS-1 cell culturing has been described earlier.[33] […] (Kinnunen et al., unpublished observation). Briefly, COS-1 cells were seeded at 14 000 cells/well in Isoplate-96 microplates (PerkinElmer, Turku, Finland) and grown overnight. The cells were transfected with the luciferase reporter plasmid pGL3-3xHA 100 ng/well and equal amounts of expression plasmids pMT2-GATA4 and pMT2-NKX2-5 total 50 ng/well. To verify the synergistic effect, the cells were transfected with pMT2-GATA4 or pMT2-NKX2-5 25 ng/well, and the total DNA concentration was adjusted to 50 ng/well with empty pMT2 plasmid. In NKX2-5 and GATA4 luciferase reporter assays, the cells were transfected with reporter plasmid pGL3-3xHA or NP-112 (100 ng/well) and expression plasmid pMT2-NKX2-5 or pMT2-GATA4 (25 ng/well). The ratio of DNA/transfection reagent (Fugene 6, Promega) was 1:3 in all assays. The transfections were performed in serum and antibiotics free media for 6 h. The cells were treated with compounds or vehicle (0.1% DMSO) for 24 h, and the luminescence was measured using neolite Reporter Gene Assay System (PerkinElmer, Turku, Finland) and Victor2 plate reader (PerkinElmer, Turku, Finland).
Raw luciferase data were analyzed in Excel, and clear outliers were removed from triplicates by using the Grubb’s test. Data analysis was performed using R.[49] The luciferase data were first normalized on the basis of the combined mean value of controls. For data visualization and creation of figures, the following R packages were used: ggplot2, cowplot, RColorBrewer, and pheatmap. The heatmaps of the toxicity data were produced with GraphPad Prism 7.00 (GraphPad Software, La Jolla, CA). Statistical significance of luciferase reporter assay data was evaluated by randomized block analysis of variance followed by Dunnett’s post hoc test. […]

[1] = COS-1, compound 3 µM, luciferase reporter activity, spread in separate STDEV column
[2] = COS-1, 3 µM, luciferase reporter activity, % of control
[3] = COS-1, 10 µM, luciferase reporter activity, % of control
[4] = COS-1, compound 3 µM, luciferase reporter activity relative to control
[5] = COS-1, compound 10 µM, luciferase reporter activity relative to control
[6] = 3 µM compound, GATA4–NKX2-5 transcriptional synergy reporter, COS-1 cells
[7] = 10 µM compound, GATA4–NKX2-5 transcriptional synergy reporter, COS-1 cells
[8] = COS-1, GATA4-NKX2-5 transcriptional synergy luciferase reporter assay, compound at 3 µM
[9] = COS-1, GATA4-NKX2-5 transcriptional synergy luciferase reporter assay, compound at 10 µM
[10] = COS-1, compound at 3 µM, luciferase reporter activity, % of control
[11] = COS-1, compound at 10 µM, luciferase reporter activity, % of control
[12] = COS-1, compound 10 µM, luciferase reporter activity, spread in separate STDEV column

T1 sequence (Q08369 whole entry): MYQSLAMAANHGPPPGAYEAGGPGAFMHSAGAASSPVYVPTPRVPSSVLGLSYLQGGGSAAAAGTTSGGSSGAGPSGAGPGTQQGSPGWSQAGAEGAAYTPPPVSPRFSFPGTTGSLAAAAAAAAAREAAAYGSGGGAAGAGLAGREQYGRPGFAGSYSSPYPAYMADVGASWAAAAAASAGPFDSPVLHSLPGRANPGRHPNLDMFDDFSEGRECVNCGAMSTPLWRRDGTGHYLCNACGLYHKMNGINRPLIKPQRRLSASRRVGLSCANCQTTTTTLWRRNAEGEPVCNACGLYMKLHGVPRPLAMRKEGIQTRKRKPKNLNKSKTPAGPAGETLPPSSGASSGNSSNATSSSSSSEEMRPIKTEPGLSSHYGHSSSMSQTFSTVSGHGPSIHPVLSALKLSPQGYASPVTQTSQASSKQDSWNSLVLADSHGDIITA
T1 sequence (P42582 whole entry): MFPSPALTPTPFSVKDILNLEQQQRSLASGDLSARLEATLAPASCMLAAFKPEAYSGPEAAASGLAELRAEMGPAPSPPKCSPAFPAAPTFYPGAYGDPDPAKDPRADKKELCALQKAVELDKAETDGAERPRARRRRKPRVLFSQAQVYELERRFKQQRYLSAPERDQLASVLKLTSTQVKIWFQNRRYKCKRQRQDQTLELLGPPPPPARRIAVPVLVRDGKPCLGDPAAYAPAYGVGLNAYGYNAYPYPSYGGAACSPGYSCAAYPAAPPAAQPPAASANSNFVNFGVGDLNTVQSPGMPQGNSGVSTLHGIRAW

## CCN(CC)c1ccc(NC(=O)c2c(-c3cc(Br)cs3)noc2C)cc1 [Compound 39l]
[1]
  activity at 3 µM: 91%

## CCN(C(=O)c1c(-c2ccccc2)noc1C)c1ccc(Nc2ccccc2)cc1 [SI6]
[2]
  activity at 3 µM: 114%
[3]
  activity at 10 µM: 87.2%

## CCN(CC)c1ccc(N(Cc2ccccc2)C(=O)c2c(-c3ccccc3)noc2C)cc1 [Compound 25c]
[2]
  activity at 3 µM: 80.2%

## CCN(CC)c1ccc(C(=O)Cn2nnnc2-c2ccccc2)cc1 [SI69]
[4]
  activity at 3 µM: 96.6%
[5]
  activity at 10 µM: 87.9%

## CCc1noc(C)c1C(=O)Nc1ccc2oc(-c3ccccc3)cc(=O)c2c1 [SI50]
[6]
  activity at 3 µM: 91.4%
[7]
  activity at 10 µM: 97.4%

## CCN(CC)c1ccc(C(=O)Nc2c(C)noc2C)cc1 [SI21]
[2]
  activity at 3 µM: 113%
[3]
  activity at 10 µM: 97.4%

## CCN(CC)c1ccc(NC(=O)c2c(-c3ccccc3)noc2C)cc1Cl [Compound 4c]
[1]
  activity at 3 µM: 92.6%

## Cc1cc(C(=O)Nc2ccc3oc(-c4ccccc4)cc(=O)c3c2)c(-c2ccccc2)o1 [SI101]
[6]
  activity at 3 µM: 90.8%
[7]
  activity at 10 µM: 78%

## CCN(CC)c1ccc(N(CCOC)C(=O)c2c(-c3cccc([N+](=O)[O-])c3)noc2C)cc1 [SI30]
[4]
  activity at 3 µM: 74.9%
[5]
  activity at 10 µM: 86%

## CCN(CC)c1ccc(NC(=O)c2c(-c3ccccn3)noc2C)cc1 [Compound 59]
[8]
  activity at 3 µM: 90.9%
[9]
  activity at 10 µM: 104%

## COc1ccc(-c2n[nH]c(N)c2/N=N/c2ccc(C(=O)O)cc2)cc1 [SI95]
[4]
  activity at 3 µM: 91.9%
[5]
  activity at 10 µM: 89.3%

## CCN(CC)c1ccc(NC(=O)c2c(-c3ccccc3)nnn2CC2CCCO2)cc1 (stereo not drawn) [SI62]
[4]
  activity at 3 µM: 88.2%
[5]
  activity at 10 µM: 72.5%

## Cc1onc(-c2ccccc2)c1C(=O)Nc1nc2ccccc2n1C [SI9]
[10]
  activity at 3 µM: 83.5%
[11]
  activity at 10 µM: 78%

## Cc1onc(-c2cccc([N+](=O)[O-])c2)c1C(=O)Nc1ccc(N(C)C)cc1 [Compound 40]
[10]
  activity at 3 µM: 95%
[11]
  activity at 10 µM: 101%

## O=C(Nc1ccc2oc(-c3ccccc3)cc(=O)c2c1)c1c[nH]nc1-c1ccccc1 [SI90]
[6]
  activity at 3 µM: 102%
[7]
  activity at 10 µM: 71.2%

## O=C(Nc1ccc(F)c(Cl)c1)c1cnoc1-c1ccco1 [SI124]
[8]
  activity at 3 µM: 108%
[9]
  activity at 10 µM: 102%

## CCN(c1ccc(NC(=O)c2c(-c3ccccc3)noc2C)cc1N)C(C)C [Compound 9, N-[3-Amino-4-[ethyl(isopropyl)amino]phenyl]-5-methyl-3-phenylisoxazole-4-carboxamide]
[10]
  activity at 3 µM: 92.6%

## Cc1onc(-c2ccccc2)c1COc1ccc(C(=O)OCc2ccoc2)cc1 [Compound 35c]
[4]
  activity at 3 µM: 114%
[5]
  activity at 10 µM: 101%

## CCN(CC)c1ccc(NC(=O)c2c(-c3ccccc3)nnn2Cc2ccccc2)cc1 [SI60]
[4]
  activity at 3 µM: 97.8%
[5]
  activity at 10 µM: 72.4%

## CCN(CC)c1ccc(NC(=O)c2c(-c3ccc([N+](=O)[O-])cc3)noc2C)cc1 [Compound 39a]
[2]
  activity at 3 µM: 89.2%
[3]
  activity at 10 µM: 99.8%

## Cc1noc(-c2ccccc2)c1C(=O)Nc1ccc(CN(C)C)cc1 [SI71]
[4]
  activity at 3 µM: 109%
[5]
  activity at 10 µM: 105%

## CCN(CC)c1ccc(NC(=O)c2c(-c3ccccc3)nnn2CC(C)C)cc1 [SI68]
[4]
  activity at 3 µM: 83.6%
[5]
  activity at 10 µM: 69.1%

## CC(=O)c1ccc(NC(=O)c2cc(-c3ccco3)on2)cc1 [Compound 70]
[1]
  activity at 3 µM: 115%

## Cc1onc(-c2ccccc2)c1NC(=O)Nc1cccc(C(F)(F)F)c1 [SI24]
[2]
  activity at 3 µM: 109%
[3]
  activity at 10 µM: 86.5%

## Cc1onc(-c2ccccc2)c1C(=O)N(C)c1ccc(C(=O)O)cc1 [Compound 68]
[1]
  activity at 3 µM: 117%
[12]
  activity at 10 µM: 127%

## CCN(CC)c1ccc(NC(=O)c2ccnc(C(F)(F)F)c2)cc1 [Compound 47ac]
[6]
  activity at 3 µM: 88.3%

## CCN(CC)c1ccc(NCc2c[nH]nc2-c2cccs2)cc1 [SI83]
[6]
  activity at 3 µM: 99%
[7]
  activity at 10 µM: 103%

## Fc1ccc(-c2n[nH]cc2C=Nc2ccc(N3CCOCC3)cc2)cc1 [SI82]
[10]
  activity at 3 µM: 103%
[11]
  activity at 10 µM: 87.6%

## COc1ccc(NC(=O)n2nc(N)cc2-c2ccc(OC)cc2)cc1 [SI99]
[10]
  activity at 3 µM: 79.8%
[11]
  activity at 10 µM: 108%

## COc1ccc(NC(=O)c2cnoc2-c2ccccc2)cc1 [SI70]
[10]
  activity at 3 µM: 109%
[11]
  activity at 10 µM: 100%

## CCN(CC)c1ccc(NC(=O)c2cnn(C)c2-c2ccccc2)cc1 [Compound 47e]
[4]
  activity at 3 µM: 81.1%

## O=C(Nc1ccc(N2CCCS2(=O)=O)cc1)c1c[nH]cc1-c1ccc(Cl)s1 [SI127]
[8]
  activity at 3 µM: 96.7%
[9]
  activity at 10 µM: 82.9%

## CCN(CC)c1ccc(NC(=O)c2cc(-c3ccco3)[nH]n2)cc1 [SI120]
[8]
  activity at 3 µM: 91.7%
[9]
  activity at 10 µM: 90.7%

## CCN(CC)c1ccc(NC(=O)c2cnoc2C2CC2)cc1 [Compound 47r]
[2]
  activity at 3 µM: 114%
[3]
  activity at 10 µM: 145%

## CCN(CC)c1ccc(CNCc2c[nH]nc2-c2ccccc2)cc1 [SI84]
[4]
  activity at 3 µM: 91.3%
[5]
  activity at 10 µM: 84.8%

## O=C(Nc1ccc2c(c1)OC(F)(F)O2)c1cc(-c2ccco2)on1 [SI122]
[8]
  activity at 3 µM: 91.8%
[9]
  activity at 10 µM: 102%

## Cc1onc(-c2ccccc2)c1COc1ccc(C(=O)N(C)CCCO)cc1 [Compound 36a]
[4]
  activity at 3 µM: 106%
[5]
  activity at 10 µM: 105%

## Cc1cc(NC(=O)c2c(C)noc2-c2ccccc2)ccc1C(C)C [SI72]
[4]
  activity at 3 µM: 102%
[5]
  activity at 10 µM: 95%

## Cc1onc(-c2ccccc2)c1C(=O)Nc1ccc(OCCN2CCOCC2)cc1 [Compound 4h]
[2]
  activity at 3 µM: 89.8%

## Cc1onc(-c2ccccc2)c1C(=O)Nc1cnc2ccccc2c1 [SI12]
[10]
  activity at 3 µM: 108%
[11]
  activity at 10 µM: 99.5%

## CCN(CC)c1ccc(NC(=O)c2ncoc2-c2ccccc2)cc1 [Compound 47a]
[2]
  activity at 3 µM: 90.7%
[3]
  activity at 10 µM: 112%

## Cc1onc(-c2ccccc2)c1C(=O)Nc1ccc(C(=O)OCc2ccco2)cc1 [SI2]
[1]
  activity at 3 µM: 99.4%
[12]
  activity at 10 µM: 82.7%

## Cc1onc(-c2ccccc2)c1COc1ccc(C(=O)OCC(C)C)cc1 [Compound 35e]
[4]
  activity at 3 µM: 87.7%

## CCN(CC)c1ccc(NC(=O)c2c(-c3ccccc3)nnn2CCOC)cc1 [Compound 47k]
[4]
  activity at 3 µM: 73.2%

## COC(=O)c1ccc(N(C)C(=O)c2c(-c3ccccc3)noc2C)cc1 [SI110]
[6]
  activity at 3 µM: 100%
[7]
  activity at 10 µM: 117%

## O=C1COc2ccc(NC(=O)c3cc(-c4ccccc4)[nH]n3)cc2N1 [SI121]
[8]
  activity at 3 µM: 101%
[9]
  activity at 10 µM: 90.6%

## CCN(CC)c1ccc(NC(=O)c2c(-c3ccccc3)nnn2C)cc1 [Compound 47o]
[4]
  activity at 3 µM: 113%

## Cc1cc(-c2noc(C)c2C(=O)Nc2cccc(Cl)c2)no1 [SI136]
[8]
  activity at 3 µM: 83%
[9]
  activity at 10 µM: 82.5%

## CCN(CC)c1ccc(NC(=O)c2nnn(C)c2-c2ccccc2)cc1 [Compound 47p]
[4]
  activity at 3 µM: 86.8%

## CC(C)c1ccc(NC(=O)c2n[nH]c3c2COc2ccccc2-3)cc1 [SI119]
[8]
  activity at 3 µM: 91.2%
[9]
  activity at 10 µM: 103%

## CCCCOc1ccc(NC(=O)c2c(-c3ccccc3)noc2C)cn1 [SI7]
[2]
  activity at 3 µM: 97.9%
[3]
  activity at 10 µM: 79%
